# Assay results from patent US11185593B2, “Alkylating agent for alkylating target with driver oncogene mutation” (Chiba Prefecture, priority 2013, dated 2021).
# How the values were obtained:
# LS180 cells [1] = experiment: Confirmation of cell death (apoptosis) by fragmentation of DNA; format: cell-based, human; details: LS180, 50 nM, FIG. 10B
# Experimental: Regarding the treatment of cells, the LS180 cells were cultured at a cell density of 1.0×10^5 cells/30 mm dish in a culture media of MEM (gibco)+10% FBS (gibco)+100 units/ml Penicillin+100 μg/ml Streptmycin (gibco). Thereafter, the cultured cells were treated with 50 nM KR12 or KR13 (dissolved in 0.125% DMSO) for 72 hours, and also, as a long-term experiment, the cells were treated with KR 12 or KR13 for […]. Thereafter, the cells of different groups were treated with a control MEM medium containing 10% FBS and 0.125% DMSO for 11 days. At the same time, as a control group, the LS180 cells were treated with 10% FBS and 0.125% DMSO for 14 days. Thereafter, the cells of the different groups were treated with trypsin, and were then recovered. The recovered cells were stirred in 50 μl of a PBS solution, and 3 μl of 1.5% Triton X (in water) and 3 μl of an RNase (1 mg/ml in water) were then added to the reaction solution. The mixed solution was treated at 37° C. for 30 minutes. Subsequently, 3 μl of proteinase K (1 mg/ml) was added to the reaction solution, and the obtained mixture was then treated at 37° C. for 30 minutes. Subsequently, 12 μl of 6× loading buffer was further added to the reaction solution, and the obtained mixture was treated at 65° C. for 10 minutes. Immediately after the treatment, 20 μl of the reaction solution was electrophoresed on 2% agarose gel in TBE at 100 V, and the gel was then stained with ethidium.
# [2] = system: mutant codon 12 KRAS gene and wild-type KRAS gene in LS180; experiment: Colony PCR with allele specific primers, LS180; format: cell-based, human; details: for MUT (number of mutant gene colonies) / WT (number of wild-type gene colonies): LS180, 50 nM, 48 hours, colony PCR, Table 3
# Experimental: Using primers that specifically amplify the GAT mutant gene of KRAS codon 12 (KRAS-MUT-F and KRAS-MUT-R) and the wild-type genes thereof (KRAS-WT-F and KRAS-WT-R), PCR was carried out directly on the Escherichia coli cells in the above-described white colonies. Whether each colony was a mutant KRAS gene or a wild-type KRAS gene was determined, depending on by which primer set the band of interest was amplified.
# KR12, which was considered to specifically alkylate the KRAS mutant codon 12 gene, was administered to a heterozygous colon cancer cell line LS180 having both a mutant codon 12 KRAS gene and a wild-type KRAS gene. Forty-eight hours later, RNA was extracted, and the KRAS gene was then quantitatively amplified. The amplified gene was cloned into a plasmid, using a TA cloning kit, and the obtained plasmid was then introduced into competent cells. Thereafter, by performing blue-white selection using an LB/amp/IPTG/X-Gal plate, white colonies having inserts were picked up, and then, the presence or absence of a colon 12 mutation in each colony was examined by direct sequencing or by a colony PCR method.
# SW480 (KRAS-MUThomo) = experiment: Suppression of tumor growth in nude mice, SW480 transplanted; format: in vivo; details: nude mice with SW480 cells; for cancer tumor-inhibitory effect / tumor growth suppression: comparison KR12, KR13, seco CBI, FIG. 15
# Experimental: The below-mentioned 3 types of PBS solutions containing each type of cells were subcutaneously transplanted into the femurs of nude mice (i.e., HT29 into 7 mice, LS180 into 7 mice, and SW480 into 6 mice), and thereafter, at a time point in which a tumor adhered to the living body of each mouse and the tumor volume became approximately 100 mm^3, a drug was prepared with a composition of 3.4 mmol KR12 (1.36 mM KR12 dissolved in 2.5 μL of DMSO and 197.5 μL of PBS), or of a DMSO/PBS control (2.5 μL of DMSO and 197.5 μL of PBS). The prepared drug was subjected to sonication for 10 minutes, and 200 μL of the drug was administered to each mouse via the caudal vein thereof. The body weight and the tumor size were measured once three days, and the size of the tumor was measured by the method of 0.52×L×W×D(1/6×π×L×W×D).
# SW480 (KRAS-MUThomo): (transplanted in an amount of 5×10^6 cells/100 μl PBS into the subcutis of each mouse; a cell line having a […] KRAS gene codon 12 mutation G12V)
# Using, as controls, PIP-indole-seco-CBI (KR13) not recognizing a codon 12 mutation and 8.4 mmol seco CBI (3.36 mM CBI dissolved in 2.5 μL of DMSO and 197.5 μL of PBS), instead of the DMSO/PBS control, an experiment was carried out by the same method as that of the above section 11.
# [3] = system: γH2AX, p53, PARP in LS180 cells; experiment: Western analysis of markers of DNA damage and cell death (apoptosis); format: cell-based, human; details: LS180, 50 nM, 14 days, FIG. 10C
# Experimental: LS180 cells, which had been subjected to a long-term treatment experiment and had been treated with 50 nM KR12 or KR13 (dissolved in 0.125% DMSO) for 14 days, were dissolved in a 1×SDS-sample buffer. The obtained solution was treated at 100° C. for 5 minutes. The protein amount was estimated using Bradford reagent (Bio-Rad, CA), and was then electrophoresed by 10% SDS-PAGE. After that, the protein was transferred onto polyvinylidene difluoride membranes (Millipore, MA), and using 5% dry milk in Tris-buffered saline (TBS) plus 0.1% Tween 20 as a blocking agent, anti-γH2AX (2F3, BioLegend, CA), anti-p53 (DO-1, Santa Cruz Biotechnology, CA), anti-PARP (Cell Signaling Technologies, MA), or anti-actin antibody (20-33, Sigma, MO) was added to lanes, and the protein was further treated with HRP-conjugated anti-mouse IgG or anti-rabbit IgG (Cell Signaling Technologies, MA). Before the treatment with a secondary antibody, the primary antibody was washed, as appropriate. Thereafter, the protein was washed with TBS plus 0.1% Tween 20, and it was then identified by […] chemiluminescence (ECL) (Amersham Biosciences, NJ).
# LS180 cells [4] = experiment: Analysis of change in cell cycle (propidium iodide, flow cytometry); format: cell-based, human; details: LS180, 50 nM, FIG. 10A; for change in cell cycle: 72 hours; for change in cell cycle, Sub G1 stage (cell death): long-term treatment (14 days)
# Experimental: In order to observe a cell cycle, treated cells and untreated cells were each washed with DNase-free PBS twice, and were then immobilized with 70% ethanol (frozen). The immobilized cells were treated with PBS containing 10 µg/mL RNaseA and 50 µg/mL propidium iodide, while they were left in a dark place at room temperature for 30 minutes. Using an FL-2H filter of FACS Calibur flowcytometer (Becton Dickinson, USA), fluorescence intensity was measured. The rate of cell cycle was determined by analyzing the obtained data using Cell Quest software (Becton Dickinson, USA). Regarding the treatment of cells, LS180 was treated with 50 nM KR12 or KR13 (dissolved in 0.125% DMSO) for 72 hours, and as a long-term treatment experiment, a culture experiment was carried out for 14 days. As a control, the cells were cultured in an MEM medium containing 10% FBS and 0.125% DMSO for 14 days.
Structure (SMILES),DNA fragmentation (LS180 cells [1]; 72-hour-treated groups),DNA fragmentation (LS180 cells [1]; long-term treatment),MUT (number of mutant gene colonies) [2],WT (number of wild-type gene colonies) [2],"expression levels of mutant cancer genes ([2]; LS180, colony PCR)","tumor size (SW480 (KRAS-MUThomo); 3.4 mmol KR12 via the caudal vein, FIG. 14C)",size of the tumor (SW480 (KRAS-MUThomo); 2 months after the administration),state of the tumor (SW480 (KRAS-MUThomo); 3 months after the administration),cancer tumor-inhibitory effect / tumor growth suppression (SW480 (KRAS-MUThomo)),DNA damage marker γH2AX [3],cleavage of the PARP protein [3],induction of p53 [3],change in cell cycle (LS180 cells [4]),"change in cell cycle, Sub G1 stage (cell death) (LS180 cells [4])",induction of DNA damage and cell death [3]
CC(=O)Nc1cn(C)c(C(=O)Nc2cc(C(=O)NCCC(=O)Nc3cn(C)c(C(=O)Nc4cn(C)c(C(=O)Nc5cc(C(=O)Nc6cn(C)c(C(=O)NCCCC(=O)Nc7cc(C(=O)Nc8cn(C)c(C(=O)NCCC(=O)Nc9cc(C(=O)Nc%10cc(C(=O)Nc%11ccc%12[nH]c(C(=O)N%13CC(CCl)c%14c%13cc(O)c%13ccccc%14%13)cc%12c%11)n(C)c%10)n(C)c9)n8)n(C)c7)n6)n(C)c5)n4)n3)n(C)c2)n1 (stereo not shown) [KR12],DNA fragmentation was not observed,DNA fragmentation induced by cell death was observed,11,27,the expression levels of mutant cancer genes were decreased,significantly reduced,significantly reduced,an extremely small and hard induration,significantly higher than in the case of administration of KR13,induced,the cleavage of the PARP protein was observed,induction of p53 was also observed,the LS180 cells at the S stage were increased,the cells at the Sub G1 stage were significantly increased,
CC(=O)Nc1cn(C)c(C(=O)Nc2cn(C)c(C(=O)Nc3cc(C(=O)Nc4cn(C)c(C(=O)NCCC(=O)Nc5cc(C(=O)Nc6cn(C)c(C(=O)NCCCC(=O)Nc7cc(C(=O)Nc8cn(C)c(C(=O)Nc9cc(C(=O)NCCC(=O)Nc%10cc(C(=O)Nc%11ccc%12[nH]c(C(=O)N%13CC(CCl)c%14c%13cc(O)c%13ccccc%14%13)cc%12c%11)n(C)c%10)n(C)c9)n8)n(C)c7)n6)n(C)c5)n4)n(C)c3)n2)n1 (stereo not shown) [KR13],DNA fragmentation was not observed,DNA fragmentation was not observed,13,14,,,,,impossible,,,,the cells at the S phase and the G2M phase were slightly increased,an increase in the cell at the Sub G1 phase was not significant,significant induction of DNA damage and cell death was not observed
